Experimental data taken from patent US20040024024A1, “Aromatic sulfone hydroxamates and their use as protease inhibitors” (priority 2001, published 2004).

target: T1, Human recombinant MMP-1 (Homo sapiens, UniProt P03956); assay: In vitro MMP inhibition, Ki determination (fluorogenic substrate II); format: biochemical; details: value in parentheses
T1 construct: made in house; host or cells: MMP-1-transfected HT-1080 cells (spent media)
T1 sequence (P03956 100-469): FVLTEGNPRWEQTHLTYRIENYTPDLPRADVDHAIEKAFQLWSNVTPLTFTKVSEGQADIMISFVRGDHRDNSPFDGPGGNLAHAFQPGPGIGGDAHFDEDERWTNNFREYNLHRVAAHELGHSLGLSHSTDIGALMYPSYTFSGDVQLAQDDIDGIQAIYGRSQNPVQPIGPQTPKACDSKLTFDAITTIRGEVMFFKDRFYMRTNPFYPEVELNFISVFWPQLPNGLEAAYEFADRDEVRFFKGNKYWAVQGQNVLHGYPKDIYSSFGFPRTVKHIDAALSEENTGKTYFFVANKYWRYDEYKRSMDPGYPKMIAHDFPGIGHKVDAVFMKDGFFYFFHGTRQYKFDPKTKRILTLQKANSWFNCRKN
Experimental: Several hydroxamates and salts thereof were analyzed in in vitro assays to determine their ability to inhibit the MMP cleavage of peptide substrates. Inhibition (Ki) and IC50 constants were calculated from the assayed hydroxamate-MMP interactions.
Human recombinant MMP-1, MMP-2, MMP-9, MMP-13, and MMP-14 were used in this assay. All enzymes were prepared in Assignee's laboratories following usual laboratory procedures. Protocols for the preparation and use of these enzymes are available in the scientific literature. See, e.g., Enzyme Nomenclature (Academic Press, San Diego, Calif., 1992) (and the citations therein). See also, Frije et al., J. Biol. Chem., 26(24), 16766-73 (1994).
The MMP-1 proenzyme was purified from the spent media of MMP-1-transfected HT-1080 cells provided by Dr. Harold Welgus of Washington University (St. Louis, Mo.). The protein was purified on a zinc chelating column.
All MMPs were activated using 4-aminophenylmercuric acetate (“APMA”, Sigma Chemical, St. Louis, Mo.) or trypsin. MMP-9 also was activated using human recombinant MMP-3 (purified in Assignee's laboratory following standard cloning and purification techniques).
Two fluorogenic, methoxycoumarin-containing polypeptide substrates were used in the MMP inhibition assays:
MCA-ArgProLeuGlyLeuDpaAlaArgGluArgNH2 (II)
Here, “Dpa” is 3-(2,4-dinitrophenyl)-L-2,3-diaminopropionyl group, and “MCA” is 7-methoxycoumarin-4-yl acetyl. Substrate (I) was purchased from Baychem (Redwood City, Calif.), and substrate II was prepared Assignee's laboratory. Substrate I was used in the IC50 determination assays, while substrate II was used in the Ki determination assays. In the absence of MMP inhibitory activity, either substrate is cleaved at the Gly-Leu peptide bond. This cleavage separates the highly fluorogenic peptide from the 2,4-dinitrophenyl quencher, thus resulting in increase of fluorescent intensity.
The stock solutions of the assayed hydroxamates (or salts thereof) were prepared in 1% dimethyl sulfoxide (DMSO). These stock solutions were diluted in Buffer A (100 mM Tris-HCl, 100 mM NaCl, 10 mM CaCl2, 0.05% polyoxyethylene 23 lauryl ether, pH 7.5) to obtain solutions with different hydroxamate concentrations, i.e., assay solutions with different concentrations of the assayed MMP inhibitory compound. The experiment controls contained the same amount of Buffer A/DMSO as the assayed sample, but contained no hydroxamate (or salt thereof).
The assays from which the Ki determinations were made were performed as follows. The assayed hydroxamate samples were incubated in separate wells of untreated white polystyrene plates (Nunc Nalgene International, Rochester, N.Y.), and analyzed on a Tecan SpectraFlour Plus plate reader. The excitation wavelength was 330 nm, and the emission wavelength—420 nm. All samples (assayed hydroxamates and controls) were incubated in separate plate wells at room temperature for 1 hr in the presence of 4 μM of MMP substrate (II). In the absence of MMP inhibitory activity, substrate II was cleaved at the Gly-Leu bond resulting in an increase of relative fluorescence. Inhibition was observed as a reduced rate of this increase in relative fluorescence. The various hydroxamates were analyzed using a single low enzyme concentration with a single substrate concentration fixed at or below the Km. This protocol is a modification of method by Knight et al., FEBS Lett., 296(3), 263-266 (1992). Apparent inhibitory constants were determined by non-linear regression of reaction velocity as a function of inhibitor and enzyme concentration using Morrison's equation, as described by Kuzmic, Anal. Biochem. 286, 45-50 (2000). Modifications were made in the non-linear regression method to allow a common control reaction rate and effective enzyme concentration to be shared between all dose-response relationships on a given assay plate. […]

Structure (SMILES) | Ki
O=C(NO)C1(S(=O)(=O)c2ccc(OCCCc3cncc(Br)c3)cc2)CCOCC1 [Example 522] | > 10 µM
O=C(NO)C1(S(=O)(=O)c2ccc(OCCCc3cncc(-c4ccc(F)cc4)c3)cc2)CCOCC1 [Example 523] | 3.21 µM
O=C(COc1ccc(S(=O)(=O)C2(C(=O)NO)CCOCC2)cc1)c1cccc(-c2ccccc2)c1 [Example 563] | > 10 µM
O=C(CCCOc1ccc(S(=O)(=O)C2(C(=O)NO)CCOCC2)cc1)Nc1cccc(I)c1 [Example 570] | 3.06 µM
O=C(NO)C1(S(=O)(=O)c2ccc(OCCCc3cccc(-n4ccnc4)c3)cc2)CCOCC1 [Example 574] | > 10 µM
O=C(NO)C1(S(=O)(=O)c2ccc(OCCCc3nc(-c4cccnc4)no3)cc2)CCOCC1 [Example 578] | > 10 µM
O=C(NO)C1(S(=O)(=O)c2ccc(OCCCc3nc(-c4ccccc4)no3)cc2)CCOCC1 [Example 584] | 2.76 µM
O=C(NO)C1(S(=O)(=O)c2ccc(OCCCc3cc(-c4ccc(F)cc4F)cs3)cc2)CCOCC1 [Example 587] | > 10 µM
CCN1CCC(C(=O)NO)(S(=O)(=O)c2ccc(OCCCSc3nc4ccccc4s3)cc2)CC1 [Example 591] | > 10 µM
O=C(Cc1csc2ccccc12)NCCOc1ccc(S(=O)(=O)C2(C(=O)NO)CCOCC2)cc1 [Example 596] | > 10 µM
O=C(NCCOc1ccc(S(=O)(=O)C2(C(=O)NO)CCOCC2)cc1)c1cc2ccccc2[nH]1 [Example 599] | > 10 µM
O=C(NO)C1(S(=O)(=O)c2ccc(OCCCc3cc(-c4ccc(OC(F)(F)F)cc4)cs3)cc2)CCOCC1 [Example 608] | > 10 µM
N#Cc1ccc(-c2cccc(CCCOc3ccc(S(=O)(=O)C4(C(=O)NO)CCOCC4)cc3)c2)cc1 [Example 624] | > 10 µM
O=C(NO)C1(S(=O)(=O)c2ccc(OCCCc3cccc(-c4ccc(C(F)(F)F)cc4)c3)cc2)CCOCC1 [Example 625] | > 10 µM
O=C(NO)C1(S(=O)(=O)c2ccc(OCCCc3cccc(-c4ccc([N+](=O)[O-])cc4)c3)cc2)CCOCC1 [Example 626] | > 10 µM
O=C(NO)C1(S(=O)(=O)c2ccc(OCCCc3cccc(-c4ccc5c(c4)OCCO5)c3)cc2)CCOCC1 [Example 627] | > 10 µM
O=C(NO)C1(S(=O)(=O)c2ccc(OCCCc3cccc(-c4ccc5c(c4)OCO5)c3)cc2)CCOCC1 [Example 628] | > 10 µM
O=C(NO)C1(S(=O)(=O)c2ccc(OCCCc3cccc(-c4ccc5ccccc5c4)c3)cc2)CCOCC1 [Example 629] | > 10 µM
O=C(NO)C1(S(=O)(=O)c2ccc(OCCCc3cccc(-c4ccc(F)cc4F)c3)cc2)CCOCC1 [Example 630] | > 10 µM
O=C(NO)C1(S(=O)(=O)c2ccc(OCCCc3cccc(-c4csc5ccccc45)c3)cc2)CCOCC1 [Example 631] | > 10 µM
O=C(NO)C1(S(=O)(=O)c2ccc(OCCCc3cccc(-c4ccsc4)c3)cc2)CCOCC1 [Example 632] | > 10 µM
O=C(NO)C1(S(=O)(=O)c2ccc(OCCCc3cccc(-c4cc5ccccc5s4)c3)cc2)CCOCC1 [Example 633] | > 10 µM
O=C(NO)C1(S(=O)(=O)c2ccc(OCCCc3cccc(-c4coc5ccccc45)c3)cc2)CCOCC1 [Example 634] | > 10 µM
C=Cc1ccc(-c2cccc(CCCOc3ccc(S(=O)(=O)C4(C(=O)NO)CCOCC4)cc3)c2)cc1 [Example 635] | > 10 µM
O=C(NO)C1(S(=O)(=O)c2ccc(OCCCc3cccc(-c4ccccc4O)c3)cc2)CCOCC1 [Example 636] | > 10 µM
O=C(NO)C1(S(=O)(=O)c2ccc(OCCCc3cccc(-c4ccoc4)c3)cc2)CCOCC1 [Example 637] | > 10 µM
O=C(NO)C1(S(=O)(=O)c2ccc(OCCCc3cccc(-c4cccc5ccccc45)c3)cc2)CCOCC1 [Example 638] | > 10 µM
Cc1ccc(-c2cccc(CCCOc3ccc(S(=O)(=O)C4(C(=O)NO)CCOCC4)cc3)c2)s1 [Example 639] | > 10 µM

same assay, conditions: value in parenthesis

Structure (SMILES) | Ki
Cc1cc(OC(F)(F)F)ccc1NC(=O)CCCOc1ccc(S(=O)(=O)C2(C(=O)NO)CCOCC2)cc1 [Example 229] | 0.955 µM
COc1ccc(/C(C#N)=C/CCCOc2ccc(S(=O)(=O)C3(C(=O)NO)CCN(C4CC4)CC3)cc2)cc1 [Example 233] | > 10 µM
CN(C(=O)CCCOc1ccc(S(=O)(=O)C2(C(=O)NO)CCOCC2)cc1)c1ccc(OC(F)(F)F)cc1 [Example 249] | > 10 µM
O=C(CCCOc1ccc(S(=O)(=O)C2(C(=O)NO)CCOCC2)cc1)Nc1ccc(OC(F)(F)F)cc1 [Example 250] | 1.44 µM
Cc1cc(NC(=O)CCCOc2ccc(S(=O)(=O)C3(C(=O)NO)CCOCC3)cc2)ccc1OC(C)C [Example 290] | > 10 µM
